Data published in patent US8829039B2, “Dihydroindolinone derivatives” (Shanghai Institute of Pharmaceutical Industry, priority 2008, dated 2014).

How the values were obtained:
[1] = tested on: breast cancer cell A435; assay: Inhibition of tumor cell proliferation in vitro (MTT), A435; type: cell-based; conditions: 48 hrs, read-out: Growth inhibition in vitro IC50
Description: (§1) The activity assay of the compounds of the invention was carried out through common methods in the art. Commercially available Sunitinib was used as positive control, and lung cancer cell H460, colon cancer cell COLO205 and HT29, breast cancer cell A435 were used as exemplary tumor cells. The tested compounds were prepared by the methods disclosed in the Examples above.
(§2) A certain amount (100 μL/well, 0.5−1×10^4 cells/mL) of lung cancer cell H460, colon cancer cell COLO205, and breast cancer cell A435, etc. in logarithmic growth phase were seeded in a 96-well plate, and incubated in an incubator for 24 hrs at 37° C. and 5% CO2. Afterwards, tested compounds and positive control (20 μL/wells) were added, followed by 80 µL of 10% serum medium, and then the tumor cells were incubated for further 48 hrs at 37° C. and 5% CO2. Afterwards, MTT (5 mg/mL) was added to the 96-well plates (20 μL/well), and the cells were incubated for another 4 h. After removing the supernatant, the cells were dissolved with DMSO (150 μL/well) and measured with a microplate reader at 490 nm.

[2] = tested on: human lung cancer cell A549; assay: Anti-tumor activity assay (MTT), A549; type: cell-based; conditions: 48 hrs, samples stored at −20° C. for one week, read-out: Inhibition rate; for inhibition at 0.1 µg/mL: final concentration 0.1 μg/mL; for inhibition at 1 µg/mL: final concentration 1 μg/mL; for inhibition at 10 µg/mL: final concentration 10 μg/mL
Description: (§3) These tests were carried out using conventional operations in the art. Specifically, the following materials and methods were employed:
(§4) Human cervical cancer cell Hela, human liver cancer cell SMMC-7721, human lung cancer cell A549, poorly differentiated human gastric adenocarcinoma cell BGC-823, human breast cancer cell MDA-MB-231.
(§5) To a bottle containing exponential growth phase cells in good condition, 0.25% trypsin solution was added. […] The cell suspension was seeded in a 96-well plate with an amount of 100 μL/well, incubated in a CO2 incubator for 24 hrs. 20 μL/well of tested compounds were added, followed by […], of 10% serum medium, and incubated for 48 hrs. 20 μL/well of MTT (5 mg/mL) was added to the 96-well plate, and the cells were incubated for 4 hrs in the incubator. After removing the supernatant, 150 μL/well of DMSO was added, and the cells were shaked in a horizontal swing bed for 10 minutes. Optical density value (OD value) of each well was measured with an ELISA analyzer at 490 nm, and cell inhibition rate was calculated. The corresponding solvent was used as negative control, and paclitaxel was used as positive control.

[3] = tested on: colon cancer cell COLO205; assay: Inhibition of tumor cell proliferation in vitro (MTT), COLO205; type: cell-based; conditions: Homo sapiens, COLO 205, 48 hrs, read-out: Growth inhibition in vitro IC50
Description: as §1, §2

[4] = tested on: human colon cancer HT-29 cells transplanted in nude mice; assay: Growth inhibition of human cancer HT-29 cells transplanted in nude mice; type: in vivo; conditions: for Body weight d0 / Body weight d21: nude mice with HT-29 tumor; for Body weight d0: d0, time of administration in separate cages; for Body weight d0 / TV d0: 30 mg/kg group; for Body weight d21 / T/C (%) / RTV / TV d21: 30 mg/kg intragastrically once a day for 21 days; for T/C (%): relative tumor proliferation rate TRTV/CRTV; for RTV: relative tumor volume TVt/TV0; for TV d0: tumor volume at d0, time of administration in separate cages; for TV d21: tumor volume at d21
Description: A piece of tumor tissue in vigorous growth phase was obtained and cut into the size of about 1.5 mm^3, and subcutaneously inoculated into the right axillary region of nude mice aseptically. Diameters of transplanted tumors in nude mice were measured with a vernier caliper. After tumors grew to 100˜300 mm^3, the animals were randomly divided into 6 groups: model control group, Sunitinib group (30 mg/kg), Compound 1 group (30 mg/kg), Compound 2 group (30 mg/kg), Compound 3 group (30 mg/kg), Compound 4 group (30 mg/kg). […] Meanwhile, the negative control group was administered equivalent amount of sterile saline. The dynamic observation of antitumor effects of compounds 1-4 and Sunitinib was performed by measuring tumor diameters. […] The general behavior of nude mice was observed and recorded daily. (1) Tumor volume (TV), calculated by the equation: […] wherein a, b represent length and width, respectively. […] RTV=TVt/TV0 wherein TV0 represents the tumor volume at the beginning of administration in separated cages (ie. d0), TVt represents the tumor volume of each measurement. […] T/C %=(TRTV/CRTV)×100% TRTV: RTV of positive control group and each test compound group. CRTV: RTV of model control group.

[5] = tested on: poorly differentiated human gastric adenocarcinoma cell BGC-823; assay: Anti-tumor activity assay (MTT), BGC-823; type: cell-based; conditions: 48 hrs, samples stored at −20° C. for one week, read-out: Inhibition rate; for inhibition at 0.1 µg/mL: final concentration 0.1 μg/mL; for inhibition at 1 µg/mL: final concentration 1 μg/mL; for inhibition at 10 µg/mL: final concentration 10 μg/mL
Description: as §3, §4, §5

[6] = tested on: Lung cancer cell H460; assay: Inhibition of tumor cell proliferation in vitro (MTT), H460; type: cell-based; conditions: Homo sapiens, NCI-H460, 48 hrs, read-out: Growth inhibition in vitro IC50
Description: as §1, §2

[7] = tested on: human liver cancer cell SMMC-7721; assay: Anti-tumor activity assay (MTT), SMMC-7721; type: cell-based; conditions: 48 hrs, samples stored at −20° C. for one week, read-out: Inhibition rate; for inhibition at 0.1 µg/mL: final concentration 0.1 μg/mL; for inhibition at 1 µg/mL: final concentration 1 μg/mL; for inhibition at 10 µg/mL: final concentration 10 μg/mL
Description: as §3, §4, §5

[8] = tested on: Fibroblast NIH/3T3; assay: Inhibition of fibroblast NIH/3T3 proliferation (MTT); type: cell-based; conditions: Mus musculus, NIH3T3, 48 h, read-out: Inhibition of NIH/3T3 cell proliferation in vitro IC50
Source text: The method commonly used at present for studying fibroblast proliferation associated diseases, i.e., for studying tissue and organ fibrosis, is measuring effects of test compounds on NIH/3T3 cell proliferation (Gao Z. M., Wan K., Effect of inhibition of NIH/3T3 cell proliferation by Cantharidin on prevention and treatment of organ and tissue fibrosis. Chinese Journal of Clinical Rehabilitation, 2004 (2). Tao Y. Y., Wang X. L., Effects of Salvianolic Acid-B on TGF-β1/ERK Signaling Transduction in NIH/3T3 Fibroblast. Journal of Capital Medical University, 2007 (2)).
Fibroblast NIH/3T3 in logarithmic growth phase was seeded in a 96-well plate, by a certain number of cells (100 μL/well, 0.5−1×10^4 cells/mL). After incubating for 24 h, the screened samples (20 μl/well) were added (directly added after cell suspension was seeded in the plate), incubated for further 48 h at 37° C. and 5% CO2. Afterwards, MTT (5 mg/mL) was added to the 96-well plate (20 μL/well). The cells were incubated for another 4 h, and then dissolved with DMSO (150 μL/well) and measured with a microplate reader at 490 nm. The inhibition rate and IC50 were calculated.

[9] = tested on: Human cervical cancer cell Hela; assay: Anti-tumor activity assay (MTT), Hela; type: cell-based; conditions: 48 hrs, samples freshly prepared with DMSO, read-out: Inhibition rate; for inhibition at 0.1 µg/mL: final concentration 0.1 μg/mL; for inhibition at 1 µg/mL: final concentration 1 μg/mL; for inhibition at 10 µg/mL: final concentration 10 μg/mL
Description: as §3, §4, §5

[10] = tested on: human breast cancer cell MDA-MB-231; assay: Anti-tumor activity assay (MTT), MDA-MB-231; type: cell-based; conditions: 48 hrs, samples stored at −20° C. for one week, read-out: Inhibition rate; for inhibition at 0.1 µg/mL: final concentration 0.1 μg/mL; for inhibition at 1 µg/mL: final concentration 1 μg/mL; for inhibition at 10 µg/mL: final concentration 10 μg/mL
Description: as §3, §4, §5

CCN1CCCC1CNC(=O)c1c(C)[nH]c(/C=C2\C(=O)Nc3ccc(F)cc32)c1C (stereo not shown) [Compound 1, N-[(1-ethylpyrrolidin-2-yl)methyl]-5-(5-fluoro-2-oxo-1,2-dihydroindole-3-methylene)-2,4-dimethyl-1H-pyrrole-3-formamide]
IC50 [1]: 63 nM | inhibition at 0.1 µg/mL [2]: 18.6% | inhibition at 1 µg/mL [2]: 31.1% | inhibition at 10 µg/mL [2]: 99.3% | IC50 [3]: 78 nM | growth inhibition of human colon cancer HT-29 cells transplanted in nude mice (in words) ([4]; 30 mg/kg continuously administered intragastrically): strongest inhibition of tumor proliferation | Body weight d0 [4]: 20.2 ± 1.9 g | Body weight d21 [4]: 21.5 ± 1.3 g | T/C (%) [4]: 10.1% | RTV [4]: 0.9 ± 0.2 | TV d0 [4]: 194.7 ± 57.7 mm^3 | TV d21 [4]: 163.7 ± 33.6 mm^3 | melting point: 232 to 236 °C | inhibition at 0.1 µg/mL [5]: 14.8% | inhibition at 1 µg/mL [5]: 20% | inhibition at 10 µg/mL [5]: 93.9% | IC50 [6]: 61 nM | inhibition at 0.1 µg/mL [7]: -21.2% | inhibition at 1 µg/mL [7]: -0.47% | inhibition at 10 µg/mL [7]: 88.5% | IC50 [8]: 205 nM | inhibition at 0.1 µg/mL [9]: 4.69% | inhibition at 1 µg/mL [9]: 32.5% | inhibition at 10 µg/mL [9]: 97.4% | inhibition at 0.1 µg/mL [10]: -8.3% | inhibition at 1 µg/mL [10]: 6.9% | inhibition at 10 µg/mL [10]: 92.2%

Cc1[nH]c(/C=C2\C(=O)Nc3ccc(F)cc32)c(C)c1C(=O)NCCC1CCCN1C (stereo not shown) [Compound 2, N-[(1-methylpyrrolidin-2-yl)ethyl]-5-(5-fluoro-2-oxo-1,2-dihydroindole-3-methylene)-2,4-dimethyl-1H-pyrrole-3-formamide]
IC50 [1]: 85 nM | inhibition at 0.1 µg/mL [2]: 0.59% | inhibition at 1 µg/mL [2]: 29.9% | inhibition at 10 µg/mL [2]: 100% | IC50 [3]: 110 nM | Body weight d0 [4]: 19.7 ± 1.7 g | Body weight d21 [4]: 19.7 ± 1.6 g | T/C (%) [4]: 17.8% | RTV [4]: 1.6 ± 0.9 | TV d0 [4]: 193.5 ± 61.9 mm^3 | TV d21 [4]: 342.9 ± 284.7 mm^3 | melting point: 241 to 244 °C | inhibition at 0.1 µg/mL [5]: 4.73% | inhibition at 1 µg/mL [5]: 20.2% | inhibition at 10 µg/mL [5]: 76.2% | IC50 [6]: 160 nM | inhibition at 0.1 µg/mL [7]: -6.59% | inhibition at 1 µg/mL [7]: -10.8% | inhibition at 10 µg/mL [7]: 74.8% | IC50 [8]: 536 nM | inhibition at 0.1 µg/mL [9]: -6.18% | inhibition at 1 µg/mL [9]: 24.7% | inhibition at 10 µg/mL [9]: 97.2% | inhibition at 0.1 µg/mL [10]: -0.2% | inhibition at 1 µg/mL [10]: 16.5% | inhibition at 10 µg/mL [10]: 71.6%

Cc1[nH]c(/C=C2\C(=O)Nc3ccc(F)cc32)c(C)c1C(=O)NCC1CCCCN1 (stereo not shown) [Compound 3]
IC50 [1]: 68 nM | inhibition at 0.1 µg/mL [2]: 11.9% | inhibition at 1 µg/mL [2]: 22.7% | inhibition at 10 µg/mL [2]: 94.2% | IC50 [3]: 110 nM | Body weight d0 [4]: 20.6 ± 2.0 g | Body weight d21 [4]: 20.8 ± 2.3 g | T/C (%) [4]: 15.0% | RTV [4]: 1.3 ± 0.7 | TV d0 [4]: 196.7 ± 62.7 mm^3 | TV d21 [4]: 290.4 ± 238.4 mm^3 | melting point: 263 to 266 °C | inhibition at 0.1 µg/mL [5]: -5.42% | inhibition at 1 µg/mL [5]: 17% | inhibition at 10 µg/mL [5]: 78.8% | IC50 [6]: 140 nM | inhibition at 0.1 µg/mL [7]: -18.6% | inhibition at 1 µg/mL [7]: 4% | inhibition at 10 µg/mL [7]: 62.1% | IC50 [8]: 530 nM | inhibition at 0.1 µg/mL [9]: -3.2% | inhibition at 1 µg/mL [9]: 50.8% | inhibition at 10 µg/mL [9]: 98% | inhibition at 0.1 µg/mL [10]: -5.4% | inhibition at 1 µg/mL [10]: 0.5% | inhibition at 10 µg/mL [10]: 88.6%
